Assay results from ChEMBL document CHEMBL4024707, “Using gene expression database to uncover biology functions of 1,4-disubstituted 1,2,3-triazole analogues synthesized via a copper (I)-catalyzed reaction” (Eur J Med Chem, 2017).

How the values were obtained:
[1] = test system: Hep 3B2; test: Induction of autophagy in human Hep3B cells at 20 uM after 72 hrs by acridine orange staining based flow cytometry (reference value: 1.1 to 4%); type: functional
[2] = Growth inhibition of HUVEC at 12.5 uM after 24 hrs by MTT assay relative to control; type: cell-based; details: human, HUVEC cells; read-out: GI
[3] = test system: Hep 3B2; test: Cell cycle arrest in human Hep3B cells assessed as accumulation at sub-G1 phase at 5 uM after 72 hrs by propidium iodide staining based flow cytometry (reference value: 0.6 to 3.3%); type: functional
[4] = test system: Hep 3B2; test: Cell cycle arrest in human Hep3B cells assessed as accumulation at sub-G1 phase after 24 to 72 hrs by propidium iodide staining based flow cytometry; type: functional
[5] = test system: Hep 3B2; test: Induction of autophagy in human Hep3B cells at 2.5 uM after 24 hrs by acridine orange staining based flow cytometry (reference value: 1.1 to 1.3%); type: functional
[6] = test system: Hep 3B2; test: Induction of autophagy in human Hep3B cells at 10 uM after 24 hrs by acridine orange staining based flow cytometry (reference value: 1.1 to 1.3%); type: functional
[7] = test system: Hep 3B2; test: Induction of autophagy in human Hep3B cells at 5 uM after 24 hrs by acridine orange staining based flow cytometry (reference value: 1.1 to 1.3%); type: functional
[8] = test system: Hep 3B2; test: Induction of autophagy in human Hep3B cells at 5 uM after 48 hrs by acridine orange staining based flow cytometry (reference value: 0.9 to 3%); type: functional
[9] = test system: Hep 3B2; test: Cell cycle arrest in human Hep3B cells assessed as accumulation at G0/G1 phase at 20 uM after 72 hrs by propidium iodide staining based flow cytometry (reference value: 41.6 to 46.2%); type: functional
[10] = test system: HUVEC; test: Cytotoxicity against HUVEC after 48 hrs by MTT assay; type: cell-based; details: Homo sapiens
[11] = test system: Hep 3B2; test: Cell cycle arrest in human Hep3B cells assessed as accumulation at G2/M phase at 20 uM after 72 hrs by propidium iodide staining based flow cytometry (reference value: 28.7 to 32.3%); type: functional
[12] = test system: Hep 3B2; test: Cell cycle arrest in human Hep3B cells assessed as accumulation at S phase at 5 uM after 72 hrs by propidium iodide staining based flow cytometry (reference value: 16.4 to 21.1%); type: functional
[13] = test system: Hep 3B2; test: Cell cycle arrest in human Hep3B cells assessed as accumulation at G0/G1 phase at 20 uM after 48 hrs by propidium iodide staining based flow cytometry (reference value: 39.7 to 40.4%); type: functional
[14] = test system: Hep 3B2; test: Cell cycle arrest in human Hep3B cells assessed as accumulation at G2/M phase at 10 uM after 72 hrs by propidium iodide staining based flow cytometry (reference value: 28.7 to 32.3%); type: functional
[15] = test system: Hep 3B2; test: Cell cycle arrest in human Hep3B cells assessed as accumulation at sub-G1 phase at 20 uM after 72 hrs by propidium iodide staining based flow cytometry (reference value: 0.6 to 3.3%); type: functional
[16] = test system: Hep 3B2; test: Cell cycle arrest in human Hep3B cells assessed as accumulation at sub-G1 phase at 10 uM after 72 hrs by propidium iodide staining based flow cytometry (reference value: 0.6 to 3.3%); type: functional
[17] = test system: Hep 3B2; test: Cell cycle arrest in human Hep3B cells assessed as accumulation at G0/G1 phase at 10 uM after 24 hrs by propidium iodide staining based flow cytometry (reference value: 36.3 to 39.0%); type: functional
[18] = test system: Hep 3B2; test: Induction of autophagy in human Hep3B cells at 2.5 to 20 uM by acridine orange staining based flow cytometry; type: functional, cell-based; details: TDE = time-dependent effect
[19] = test system: Hep 3B2; test: Cell cycle arrest in human Hep3B cells assessed as accumulation at sub-G1 phase at 5 uM after 48 hrs by propidium iodide staining based flow cytometry (reference value: 1.5 to 6.5%); type: functional
[20] = test system: Hep 3B2; test: Cell cycle arrest in human Hep3B cells assessed as accumulation at S phase at 2.5 uM after 24 hrs by propidium iodide staining based flow cytometry (reference value: 22.6 to 27.1%); type: functional
[21] = test system: Hep 3B2; test: Induction of autophagy in human Hep3B cells at 5 uM after 72 hrs by acridine orange staining based flow cytometry (reference value: 1.1 to 4%); type: functional
[22] = test system: Hep 3B2; test: Cell cycle arrest in human Hep3B cells assessed as accumulation at sub-G1 phase at 10 uM after 24 hrs by propidium iodide staining based flow cytometry (reference value: 1.9 to 3.6%); type: functional
[23] = test system: Hep 3B2; test: Cell cycle arrest in human Hep3B cells assessed as accumulation at G0/G1 phase at 20 uM after 24 hrs by propidium iodide staining based flow cytometry (reference value: 36.3 to 39.0%); type: functional
[24] = test system: Hep 3B2; test: Cell cycle arrest in human Hep3B cells assessed as accumulation at sub-G1 phase at 10 uM after 48 hrs by propidium iodide staining based flow cytometry (reference value: 1.5 to 6.5%); type: functional
[25] = test system: Hep 3B2; test: Cell cycle arrest in human Hep3B cells assessed as accumulation at sub-G1 phase at 2.5 uM after 72 hrs by propidium iodide staining based flow cytometry (reference value: 0.6 to 3.3 %); type: functional
[26] = test system: Hep 3B2; test: Cell cycle arrest in human Hep3B cells assessed as accumulation at sub-G1 phase at 2.5 uM after 48 hrs by propidium iodide staining based flow cytometry (reference value: 1.5 to 6.5%); type: functional
[27] = test system: Hep 3B2; test: Growth inhibition of human Hep3B cells at 10 uM after 24 hrs by MTT assay relative to control; type: functional; details: read-out: GI
[28] = test system: Hep 3B2; test: Cell cycle arrest in human Hep3B cells assessed as accumulation at S phase at 20 uM after 72 hrs by propidium iodide staining based flow cytometry (reference value: 16.4 to 21.1%); type: functional
[29] = test system: Hep 3B2; test: Cell cycle arrest in human Hep3B cells assessed as accumulation at sub-G1 phase at 2.5 uM after 24 hrs by propidium iodide staining based flow cytometry (reference value: 1.9 to 3.6%); type: functional
[30] = test system: Hep 3B2; test: Cell cycle arrest in human Hep3B cells assessed as accumulation at sub-G1 phase at 5 uM after 24 hrs by propidium iodide staining based flow cytometry (reference value: 1.9 to 3.6%); type: functional
[31] = test system: Hep 3B2; test: Induction of autophagy in human Hep3B cells at 2.5 uM after 72 hrs by acridine orange staining based flow cytometry (reference value: 1.1 to 4%); type: functional
[32] = test system: Hep 3B2; test: Cell cycle arrest in human Hep3B cells assessed as accumulation at S phase at 5 uM after 24 hrs by propidium iodide staining based flow cytometry (reference value: 22.6 to 27.1%); type: functional
[33] = test system: Hep 3B2; test: Induction of autophagy in human Hep3B cells after 24 to 72 hrs by acridine orange staining based flow cytometry; type: functional, cell-based
[34] = test system: Hep 3B2; test: Induction of autophagy in human Hep3B cells at 2.5 uM after 48 hrs by acridine orange staining based flow cytometry (reference value: 0.9 to 3%); type: functional
[35] = test system: Hep 3B2; test: Induction of autophagy in human Hep3B cells at 10 uM after 48 hrs by acridine orange staining based flow cytometry (reference value: 0.9 to 3%); type: functional
[36] = test system: Hep 3B2; test: Cell cycle arrest in human Hep3B cells assessed as accumulation at sub-G1 phase at 20 uM after 24 hrs by propidium iodide staining based flow cytometry (reference value: 1.9 to 3.6%); type: functional
[37] = test system: Hep 3B2; test: Induction of autophagy in human Hep3B cells at 20 uM after 24 hrs by acridine orange staining based flow cytometry (reference value: 1.1 to 1.3%); type: functional

Row | SMILES | Activity [1] | inhibition at 24 h, 12.5 µM [2] | Activity [3] | Activity [5] | Activity [6] | Activity [7] | Activity [8] | Activity [15] | Activity [16] | Activity [18] | Activity [19] | Activity [21] | Activity [22] | Activity [24] | Activity [25] | Activity [26] | Activity [29] | Activity [30] | Activity [31] | Activity [34] | other results
1 | CNC(=O)c1cc(Oc2ccc(NC(=O)Nc3ccc(Cl)c(C(F)(F)F)c3)cc2)ccn1 [SORAFENIB] | 84.9% | 37.4% | 7.2% | 2% | 3.2% | 2.4% | 1.5% | 65% | 13.7% | Tde | 5% | 6.1% | 6.9% | 11.8% | 5.3% | 4% | 5.2% | 7.3% | 2.3% | 1.3% | Activity [4]: Dose-dependent effect; Activity [9]: 13.6%; IC50 [10]: 40.6 µM; Activity [11]: 15.2%; Activity [12]: 13.7%; Activity [13]: 27.8%; Activity [14]: 22.7%; Activity [17]: 53.6%; Activity [20]: 21.9%; Activity [23]: 45.7%; inhibition of growth at 10 µM [27]: 8.6%; Activity [28]: 6.2%; Activity [32]: 19.8%; Activity [33]: Dose-dependent effect
2 | COc1ccc(CNC(=O)Nc2ncc([N+](=O)[O-])s2)cc1 | 15.5% | – | 2.4% | 4.7% | 5.9% | 5.3% | 6.3% | 2.1% | 1.3% | Tde | 5% | 10.9% | 5% | 3.3% | 1.6% | 3.4% | 3.1% | 4.2% | 6.4% | 8.1% | Activity [35]: 5.8%; Activity [36]: 4.7%; Activity [9]: 43.6%; Activity [11]: 34.9%; Activity [12]: 21.7%; Activity [13]: 37.8%; Activity [14]: 34.1%; Activity [37]: 8.9%; Activity [17]: 34.3%; Activity [20]: 25.7%; Activity [23]: 33%; Activity [28]: 19.5%; Activity [32]: 25%; Activity [33]: Dose-dependent effect
3 | O=C1COc2ccccc2N1Cc1cn(CCC2OCCO2)nn1 | 57% | 15.2% | 18% | 1.3% | 2.4% | 1.6% | 5.1% | 65.7% | 54% | Tde | 14.2% | 12.8% | 22.4% | 37.4 - 41.4% | 7.9% | 6.5% | 6.2% | 12.4% | 1.9% | 1.9% | Activity [4]: Dose-dependent effect; Activity [35]: 20.3%; Activity [36]: 34.1%; IC50 [10]: 115 µM; Activity [37]: 5.5%; inhibition of growth at 10 µM [27]: 18%
